Measured values reported in patent US10981894B2, “Melanocortin subtype-2 receptor (MC2R) antagonists and uses thereof” (Crinetics Pharmaceuticals, Inc., priority 2018, dated 2021).

Molecular target: hMC2 receptor (Homo sapiens, UniProt Q01718)
Assay: hMC2 membrane binding assay ([125I]ACTH (1-39) Tyr23, SPA)
Design: scale not given here
Conditions: crude hMC2R membranes from CRE-bla-CHO-K1 cells expressing hMC2 receptor and hMRAP; [125I]ACTH (1-39) Tyr23 0.2 nM; 1.5 hours at room temperature; read-out: MC2R binding potency
Procedure, shortened: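 CRE-bla-CHO-K1 membranes co-expressing hMC2 receptor and hMRAP, preincubated with WGA PVT SPA beads in pH 7.4 HEPES/MgCl2/CaCl2/0.2% BSA buffer. Compounds (typically 0–10,000 nM final) compete with 0.2 nM [125I]ACTH(1-39) Tyr23 for 1.5 h at room temperature. SPA counts give Ki by non-linear regression.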

Chain of hMC2 receptor (Q01718 whole entry): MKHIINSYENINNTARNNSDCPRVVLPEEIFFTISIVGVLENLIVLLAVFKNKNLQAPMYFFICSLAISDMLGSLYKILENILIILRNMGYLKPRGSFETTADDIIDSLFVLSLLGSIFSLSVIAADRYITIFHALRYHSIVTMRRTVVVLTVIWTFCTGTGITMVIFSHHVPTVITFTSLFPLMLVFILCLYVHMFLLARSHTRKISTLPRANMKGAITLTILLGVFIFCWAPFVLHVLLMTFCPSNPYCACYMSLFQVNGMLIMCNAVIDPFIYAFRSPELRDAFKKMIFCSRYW
Chain of hMC2 receptor (Q8TCY5 whole entry partner): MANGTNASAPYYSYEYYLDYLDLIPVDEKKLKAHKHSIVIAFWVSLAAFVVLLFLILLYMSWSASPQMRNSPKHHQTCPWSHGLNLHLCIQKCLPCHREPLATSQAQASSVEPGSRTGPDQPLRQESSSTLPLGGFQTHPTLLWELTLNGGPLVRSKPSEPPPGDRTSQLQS

Ki [nM] | SMILES
< 10 | CCOc1ccccc1-c1ccc(N2CCN(C(=O)N3CCC[C@H]3C(F)(F)F)C[C@H]2CC)c(C(=O)N[C@@H]2CCN(C)C2)n1 [Compound 1-374, 6-(2-ethoxyphenyl)-3-[(2R)-2-ethyl-4-[(2S)-2-(trifluoromethyl)pyrrolidine-1-carbonyl]piperazin-1-yl]-N-[(3R)-1-methylpyrrolidin-3-yl]pyridine-2-carboxamide]
< 10 | CCOc1ncccc1-c1ccc(N2CCN(C(=O)c3ccc(C)cc3N3CCC(CN)C3)C[C@H]2CC)c(C(=O)NCCN)c1 (stereo partly drawn) [Compound 1-104, N-(2-aminoethyl)-2-[(2R)-4-{2-[3-(aminomethyl)pyrrolidin-1-yl]-4-methylbenzoyl}-2-ethylpiperazin-1-yl]-5-(2-ethoxypyridin-3-yl)benzamide]
< 10 | CCOc1ncccc1-c1ccc(N2CCN(C(=O)c3ccc(F)cc3C(F)(F)F)C[C@H]2CC)c(CN)n1 [Compound 2-20, 1-{2′-ethoxy-5-[(2R)-2-ethyl-4-[4-fluoro-2-(trifluoromethyl)benzoyl]piperazin-1-yl]-[2,3′-bipyridin]-6-yl}methanamine]
< 10 | CCOc1ncccc1-c1ccc(N2CCN(C(=O)N3CCCC[C@H]3C(F)(F)F)C[C@H]2CC)c(C(=O)N[C@H]2CCN(C)C2)n1 [Compound 1-434, 2′-ethoxy-5-[(2R)-2-ethyl-4-[(2S)-2-(trifluoromethyl)piperidine-1-carbonyl]piperazin-1-yl]-N-[(3S)-1-methylpyrrolidin-3-yl]-[2,3′-bipyridine]-6-carboxamide]
< 10 | CCOc1ncccc1-c1ccc(N2CCN(C(=O)c3ccc(Cl)cc3Cl)C[C@H]2CC)c(C(=O)N[C@@H]2CCNC2)n1 [Compound 1-267, 5-[(2R)-4-(2,4-dichlorobenzoyl)-2-ethylpiperazin-1-yl]-2′-ethoxy-N-[(3R)-pyrrolidin-3-yl]-[2,3′-bipyridine]-6-carboxamide]
< 10 | CCOc1ncccc1-c1ccc(N2CCN(C(=O)c3ccc(F)cc3C(F)(F)F)C[C@H]2CC)c(C(=O)NCCNC)c1F [Compound 1-114, 3-(2-ethoxypyridin-3-yl)-6-[(2R)-2-ethyl-4-[4-fluoro-2-(trifluoromethyl)benzoyl]piperazin-1-yl]-2-fluoro-N-[2-(methylamino)ethyl]benzamide]
< 10 | CCOc1ncccc1-c1ccc(N2CCN(C(=O)C3(c4ccccc4)CCC3)C[C@H]2CC)c(C(=O)N[C@@H]2CCN(C)C2)n1 [Compound 1-358, 2′-ethoxy-5-[(2R)-2-ethyl-4-(1-phenylcyclobutanecarbonyl)piperazin-1-yl]-N-[(3R)-1-methylpyrrolidin-3-yl]-[2,3′-bipyridine]-6-carboxamide]
< 10 | CCOc1ccccc1-c1ccc(N2CCN(C(=O)c3ccc(OC)nc3C(F)(F)F)C[C@H]2CC)c(C(=O)NC2CN(C)C2)n1 [Compound 1-236, 6-(2-ethoxyphenyl)-3-[(2R)-2-ethyl-4-[6-methoxy-2-(trifluoromethyl)pyridine-3-carbonyl]piperazin-1-yl]-N-(1-methylazetidin-3-yl)pyridine-2-carboxamide]
< 10 | CCOc1ncccc1-c1ccc(N2CCN(C(=O)c3ccc(F)cc3C(F)F)C[C@H]2CC)c(C(=O)NCCN(C)C)c1F [Compound 1-176, 6-[(2R)-4-[2-(difluoromethyl)-4-fluorobenzoyl]-2-ethylpiperazin-1-yl]-N-[2-(dimethylamino)ethyl]-3-(2-ethoxypyridin-3-yl)-2-fluorobenzamide]
< 10 | CCOc1ncccc1-c1ccc(N2CCN(C(=O)N3CCc4cccc(C(F)(F)F)c43)C[C@H]2CC)c(C(=O)N[C@@H]2CCNC2)n1 [Compound 1-361, 2′-ethoxy-5-[(2R)-2-ethyl-4-[7-(trifluoromethyl)-2,3-dihydro-1H-indole-1-carbonyl]piperazin-1-yl]-N-[(3R)-pyrrolidin-3-yl]-[2,3′-bipyridine]-6-carboxamide]
< 10 | CCOc1ncccc1-c1ccc(N2CCN(C(=O)c3ccc(Cl)cc3C(F)(F)F)C[C@H]2CC)c(C(=O)N[C@@H]2CCN(C)C2)c1 [Compound 1-48, 2-[(2R)-4-[4-chloro-2-(trifluoromethyl)benzoyl]-2-ethylpiperazin-1-yl]-5-(2-ethoxypyridin-3-yl)-N-[(3R)-1-methylpyrrolidin-3-yl]benzamide]
< 10 | CCOc1ncccc1-c1ccc(N2CCN(C(=O)c3ccc(OC)cc3C(F)(F)F)C[C@H]2CC)c(C(=O)NC2CN(C)C2)c1F [Compound 1-203, 3-(2-ethoxypyridin-3-yl)-6-[(2R)-2-ethyl-4-[4-methoxy-2-(trifluoromethyl)benzoyl]piperazin-1-yl]-2-fluoro-N-(1-methylazetidin-3-yl)benzamide]
< 10 | CCOc1ncccc1-c1ccc(N2CCN(C(=O)c3ccc(F)cc3Cl)C[C@H]2CC)c(C(=O)NCCN)c1 [Compound 1-38, N-(2-aminoethyl)-2-[(2R)-4-(2-chloro-4-fluorobenzoyl)-2-ethylpiperazin-1-yl]-5-(2-ethoxypyridin-3-yl)benzamide]
< 10 | CCOc1ncccc1-c1ccc(N2CCN(C(=O)OC(C(C)(C)C)C(F)(F)F)C[C@H]2CC)c(C(=O)N[C@@H]2CCN(C)C2)n1 (single isomer, unassigned) [Compound 1-392, (2S*)-1,1,1-trifluoro-3,3-dimethylbutan-2-yl (3R)-4-(2′-ethoxy-6-{[(3R)-1-methylpyrrolidin-3-yl]carbamoyl}-[2,3′-bipyridin]-5-yl)-3-ethylpiperazine-1-carboxylate]
< 10 | CCOc1ncccc1-c1ccc(N2CCN(C(=O)c3ccc(OC)nc3C(F)(F)F)C[C@H]2CC)c(C(=O)NC2CN(C)C2)n1 [Compound 1-230, 2′-ethoxy-5-[(2R)-2-ethyl-4-[6-methoxy-2-(trifluoromethyl)pyridine-3-carbonyl]piperazin-1-yl]-N-(1-methylazetidin-3-yl)-[2,3′-bipyridine]-6-carboxamide]
< 10 | CCOc1ccc(C(=O)N2CCN(c3ccc(-c4ccccc4OCC)nc3C(=O)NC3CN(C)C3)[C@H](CC)C2)c(C(F)(F)F)n1 [Compound 1-237, 3-[(2R)-4-[6-ethoxy-2-(trifluoromethyl)pyridine-3-carbonyl]-2-ethylpiperazin-1-yl]-6-(2-ethoxyphenyl)-N-(1-methylazetidin-3-yl)pyridine-2-carboxamide]
< 10 | CCOc1ncccc1-c1ccc(N2CCN(C(=O)c3ccc(Cl)cc3C(F)(F)F)C[C@H]2CC)c(C(=O)NCC2CNC2)n1 [Compound 1-222, N-[(azetidin-3-yl)methyl]-5-[(2R)-4-[4-chloro-2-(trifluoromethyl)benzoyl]-2-ethylpiperazin-1-yl]-2′-ethoxy-[2,3′-bipyridine]-6-carboxamide]
< 10 | CCOc1ncccc1-c1ccc(N2CCN(C(=O)c3ccc(Cl)cc3N3CC[C@H](N(C)C)C3)C[C@H]2CC)c(C(=O)N[C@@H]2CCNC2)c1 [Compound 1-115, 2-[(2R)-4-{4-chloro-2-[(3S)-3-(dimethylamino)pyrrolidin-1-yl]benzoyl}-2-ethylpiperazin-1-yl]-5-(2-ethoxypyridin-3-yl)-N-[(3R)-pyrrolidin-3-yl]benzamide]
< 10 | CCOc1ncccc1-c1ccc(N2CCN(C(=O)c3ccc(Cl)cc3C(F)(F)F)C[C@H]2CC)c(C(=O)N[C@@H]2CCNC2)n1 [Compound 1-151, 5-[(2R)-4-[4-chloro-2-(trifluoromethyl)benzoyl]-2-ethylpiperazin-1-yl]-2′-ethoxy-N-[(3R)-pyrrolidin-3-yl]-[2,3′-bipyridine]-6-carboxamide]
10 to 100 | CC[C@@H]1CN(C(=O)c2ccc(C(F)(F)F)cc2Cl)CCN1c1ccc(-c2ccccc2C#N)cc1C(=O)NCCN [Compound 1-7, N-(2-aminoethyl)-4-[(2R)-4-[2-chloro-4-(trifluoromethyl)benzoyl]-2-ethylpiperazin-1-yl]-2′-cyano-[1,1′-biphenyl]-3-carboxamide]
< 10 | CCOc1ncccc1-c1ccc(N2CCN(C(=O)c3ccc(F)cc3Cl)C[C@H]2CC)c(C(=O)N[C@@H]2CCN(C)C2)n1 [Compound 1-261, 5-[(2R)-4-[2-chloro-4-fluorobenzoyl]-2-ethylpiperazin-1-yl]-2′-ethoxy-N-[(3R)-1-methylpyrrolidin-3-yl]-[2,3′-bipyridine]-6-carboxamide]
< 10 | CCOc1ncccc1-c1ccc(N2CCN(C(=O)c3ccc(Cl)cc3C(F)(F)F)C[C@H]2CC)c(C(=O)NCCc2ncc[nH]2)c1 [Compound 1-93, 2-[(2R)-4-[4-chloro-2-(trifluoromethyl)benzoyl]-2-ethylpiperazin-1-yl]-5-(2-ethoxypyridin-3-yl)-N-[2-(1H-imidazol-2-yl)ethyl]benzamide]
< 10 | CCOc1ccccc1-c1ccc(N2CCN(C(=O)c3ccc(C(F)(F)F)cc3Cl)C[C@H]2CC)c(C(=O)NCCN)c1 [Compound 1-3, N-(2-aminoethyl)-4-[(2R)-4-[2-chloro-4-(trifluoromethyl)benzoyl]-2-ethylpiperazin-1-yl]-2′-ethoxy-[1,1′-biphenyl]-3-carboxamide]
< 10 | CCOc1ccc(C(=O)N2CCN(c3ccc(-c4cccnc4OCC)nc3C(=O)NCCNC)[C@H](CC)C2)c(C(F)(F)F)n1 [Compound 1-181, 2′-ethoxy-5-[(2R)-4-[6-ethoxy-2-(trifluoromethyl)pyridine-3-carbonyl]-2-ethylpiperazin-1-yl]-N-[2-(methylamino)ethyl]-[2,3′-bipyridine]-6-carboxamide]
< 10 | CCOc1ncccc1-c1ccc(N2CCN(C(=O)[C@H]3CC[C@@H](C(F)(F)F)CC3)C[C@H]2CC)c(C(=O)N[C@@H]2CCNC2)n1 [Compound 1-299, 2′-ethoxy-5-[(2R)-2-ethyl-4-[cis-4-(trifluoromethyl)cyclohexanecarbonyl]piperazin-1-yl]-N-[(3R)-pyrrolidin-3-yl]-[2,3′-bipyridine]-6-carboxamide]
